# Target: T1, human 5-HT4(b) receptor (Homo sapiens, UniProt Q13639)
# T1 construct: overexpressing the full-length human 5-HT4(b) receptor with an N-terminal FLAG tag; FLAG (N); host or cells: CHO-K1
# Assay: 5-HT4(b) agonist assay (cAMP accumulation)
# Assay type: cell-based
# Conditions: CHO-K1 cells overexpressing full-length human 5-HT4(b) receptor; cAMP accumulation after 30 minutes at room temperature; 1 μM 5-HT as 100% activity
# Description: One may determine the activity of the compounds of Formula 1 using a variety of methods, including in vitro and in vivo methods. The ability of the example compounds to activate the 5-HT4(b) receptor may be determined using the following assay.
# Chinese hamster ovary (CHO-K1) cells overexpressing the full-length human 5-HT4(b) receptor with an N-terminal FLAG tag (Multispan Inc, Hayward, CA) are cultured per the manufacturer's protocol in 1:1 DMEM/F12 (Thermo Fisher, Waltham, MA) with 10% fetal bovine serum (GE Healthcare, Pittsburgh, PA) and 10 μg/mL puromycin (Thermo Fisher, Waltham, MA), and stored in frozen aliquots to be used as assay ready cells. On the day of the assay, cells are removed from frozen storage, washed two times in 1× Kreb's Ringer Buffer (Zenbio, Research Triangle Park, NC), and re-suspended to a concentration of 4×10^6 cells/mL in 1× Kreb's Ringer Buffer. Test compound (50 nL) in 100% DMSO is acoustically dispensed in low volume, white, 384-well polypropylene plates (Corning, Tewksbury, MA), followed by the addition of 4×10^4 cells per well in a total volume of 10 μL. Cells are incubated with test compound for 30 minutes at room temperature in the dark, and cAMP accumulation is measured using the Cisbio HiRange cAMP assay kit (Bedford, MA) per the manufacturer's protocol. Anti-cAMP antibody and d2-cAMP tracer reagents diluted in lysis/detection buffer are incubated in the dark for 1 hour, and results are measured on a Pherastar plate reader (BMG Labtech, Ortenberg, Germany). Data are normalized using 1 μM 5-HT (Sigma Aldrich, St. Louis, MO) as 100% activity, and DMSO alone as 0% activity.
# The ability of the example compounds to activate the 5-HT4(b) receptor was evaluated using the assay described in the Biological Activity section. Table 1, below, lists EC50 from the 5-HT4(b) agonist assay for each of the example compounds, where smaller EC50 values represent higher potency.
# T1 sequence (Q13639 whole entry): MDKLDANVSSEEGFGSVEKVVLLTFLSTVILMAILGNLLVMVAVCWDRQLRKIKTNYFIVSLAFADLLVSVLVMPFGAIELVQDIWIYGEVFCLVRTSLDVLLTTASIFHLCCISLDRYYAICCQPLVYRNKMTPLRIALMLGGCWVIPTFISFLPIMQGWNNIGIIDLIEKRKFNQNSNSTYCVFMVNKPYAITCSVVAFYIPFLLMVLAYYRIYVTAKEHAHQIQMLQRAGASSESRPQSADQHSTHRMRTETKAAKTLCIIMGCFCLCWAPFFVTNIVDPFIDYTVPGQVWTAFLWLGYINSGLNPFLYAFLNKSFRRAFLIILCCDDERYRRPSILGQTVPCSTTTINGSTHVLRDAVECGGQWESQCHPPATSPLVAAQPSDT
row,SMILES,EC50 [nM]
1,"Nc1c(Cl)cc(C(=O)NCC2CCN(CC3CCN(C(=O)CCCCCCCCCCC(=O)NC[C@H](O)[C@@H](O)[C@H](O)[C@H](O)CO)CC3)CC2)c2c1CCO2 [Example 38, 4-amino-5-chloro-N-((1-((1-(12-oxo-12-(((2S,3R,4R,5R)-2,3,4,5,6-pentahydroxyhexyl)amino)dodecanoyl)piperidin-4-yl)methyl)piperidin-4-yl)methyl)-2,3-dihydrobenzofuran-7-carboxamide]",1.2
2,"Nc1c(Cl)cc(C(=O)NCC2CCN(CC3CCN(C(=O)CCCCCCCCC(=O)NC[C@H](O)[C@@H](O)[C@H](O)[C@H](O)CO)CC3)CC2)c2c1CCO2 [Example 39, 4-amino-5-chloro-N-((1-((1-(10-oxo-10-(((2S,3R,4R,5R)-2,3,4,5,6-pentahydroxyhexyl)amino)decanoyl)piperidin-4-yl)methyl)piperidin-4-yl)methyl)-2,3-dihydrobenzofuran-7-carboxamide]",1.2
3,"Nc1c(Cl)cc(C(=O)NCC2CCN(CC3CCN(C(=O)CCCCCCC(=O)NC[C@H](O)[C@@H](O)[C@H](O)[C@H](O)CO)CC3)CC2)c2c1CCO2 [Example 40, 4-amino-5-chloro-N-((1-((1-(8-oxo-8-(((2S,3R,4R,5R)-2,3,4,5,6-pentahydroxyhexyl)amino)octanoyl)piperidin-4-yl)methyl)piperidin-4-yl)methyl)-2,3-dihydrobenzofuran-7-carboxamide]",2
4,"CO[C@H]1CN(CC2CCN(C(=O)CCCCCCCC(=O)NC[C@H](O)[C@@H](O)[C@H](O)[C@H](O)CO)CC2)CC[C@H]1NC(=O)c1cc(Cl)c(N)c2c1OCC2 [Example 41, 4-amino-5-chloro-N-((3S,4R)-3-methoxy-1-((1-(9-oxo-9-(((2S,3R,4R,5R)-2,3,4,5,6-pentahydroxyhexyl)amino)nonanoyl)piperidin-4-yl)methyl)piperidin-4-yl)-2,3-dihydrobenzofuran-7-carboxamide]",1.2
5,"CO[C@H]1CN(CC2CCN(C(=O)CCCCCC(=O)NC[C@H](O)[C@@H](O)[C@H](O)[C@H](O)CO)CC2)CC[C@H]1NC(=O)c1cc(Cl)c(N)c2c1OCC2 [Example 42, 4-amino-5-chloro-N-((3S,4R)-3-methoxy-1-((1-(7-oxo-7-(((2S,3R,4R,5R)-2,3,4,5,6-pentahydroxyhexyl)amino)heptanoyl)piperidin-4-yl)methyl)piperidin-4-yl)-2,3-dihydrobenzofuran-7-carboxamide]",1.4
6,"CO[C@H]1CN(CC2CCN(C(=O)CCCC(=O)NC[C@H](O)[C@@H](O)[C@H](O)[C@H](O)CO)CC2)CC[C@H]1NC(=O)c1cc(Cl)c(N)c2c1OCC2 [Example 43, 4-amino-5-chloro-N-((3S,4R)-3-methoxy-1-((1-(5-oxo-5-(((2S,3R,4R,5R)-2,3,4,5,6-pentahydroxyhexyl)amino)pentanoyl)piperidin-4-yl)methyl)piperidin-4-yl)-2,3-dihydrobenzofuran-7-carboxamide]",1.7
7,"CO[C@H]1CN(CCCCCC(=O)NCCCCCCCC(=O)NC[C@H](O)[C@@H](O)[C@H](O)[C@H](O)CO)CC[C@H]1NC(=O)c1cc(Cl)c(N)c2c1OCC2 [Example 44, 4-amino-5-chloro-N-((3S,4R)-3-methoxy-1-(6-oxo-6-((8-oxo-8-(((2S,3R,4R,5R)-2,3,4,5,6-pentahydroxyhexyl)amino)octyl)amino)hexyl)piperidin-4-yl)-2,3-dihydrobenzofuran-7-carboxamide]",3.1
8,"CO[C@H]1CN(CCCCCC(=O)NCCCCCC(=O)NC[C@H](O)[C@@H](O)[C@H](O)[C@H](O)CO)CC[C@H]1NC(=O)c1cc(Cl)c(N)c2c1OCC2 [Example 45, 4-amino-5-chloro-N-((3S,4R)-3-methoxy-1-(6-oxo-6-((6-oxo-6-(((2S,3R,4R,5R)-2,3,4,5,6-pentahydroxyhexyl)amino)hexyl)amino)hexyl)piperidin-4-yl)-2,3-dihydrobenzofuran-7-carboxamide]",12.1
9,CO[C@H]1CN(CCCCCC(=O)NCCCC(=O)NC[C@H](O)[C@@H](O)[C@H](O)[C@H](O)CO)CC[C@H]1NC(=O)c1cc(Cl)c(N)c2c1OCC2 [Example 46],5.9

# Source: patent US12653815B2, “Luminally-acting N-(piperidin-4-yl)benzamide derivatives” (Takeda Pharmaceutical Company Limited, priority 2020, dated 2026)
